{"source": "patent US7780647B2", "about": "“Medical device with therapeutic agents” (Cook Incorporated, priority 2003, dated 2010)", "origin": "cited, not measured here", "key": {"[1]": {"tested_on": "smooth muscle cell proliferation", "settings": "both in vitro and in vivo"}, "[2]": {"tested_on": "restenosis of human coronary arteries", "settings": "following stent use"}}, "data": [{"smiles": "CC(=O)O[C@H]1C(=O)[C@@]2(C)[C@H]([C@H](OC(=O)c3ccccc3)[C@]3(O)C[C@H](OC(=O)[C@H](O)[C@@H](NC(=O)c4ccccc4)c4ccccc4)C(C)=C1C3(C)C)[C@]1(OC(C)=O)CO[C@@H]1C[C@@H]2O", "note": "[paclitaxel]", "values": [{"measurement": "smooth muscle cell proliferation", "setting": "[1]", "result": "inhibits smooth muscle cell proliferation"}, {"measurement": "restenosis of human coronary arteries", "setting": "[2]", "result": "decrease restenosis"}]}]}
